Test results published in ChEMBL document CHEMBL3525983, “Pharmacokinetics, metabolism, and disposition of rivoglitazone, a novel peroxisome proliferator-activated receptor γ agonist, in rats and monkeys” (Drug Metab Dispos, 2011).

How the values were obtained:
[1] = AUC (0 to infinity) in monkey at 0.0986 mg/kg, iv administered via tail vein by LC-MS/MS analysis; format: ADME, organism-based, Macaca mulatta; design: time infinity, dose 0.0986 mg/kg, dosed compound name [14C]Rivoglitazone, route intravenous; settings: rhesus monkey, plasma
[2] = Total clearance in F344/DuCrlCrlj rat at 0.5 mg/kg, iv administered via tail vein by LC-MS/MS analysis; format: ADME, organism-based; design: dose 0.5 mg/kg, dosed compound name [14C]Rivoglitazone, route intravenous; settings: in vivo
[3] = AUC (0 to infinity) in F344/DuCrlCrlj rat at 0.5 mg/kg, po administered via gavage by LC-MS/MS analysis; format: ADME, organism-based; design: time infinity, dose 0.5 mg/kg, dosed compound name [14C]Rivoglitazone, route oral; settings: plasma
[4] = Volume of distribution at steady state in F344/DuCrlCrlj rat at 0.5 mg/kg, iv administered via tail vein by LC-MS/MS analysis; format: ADME, organism-based; design: dose 0.5 mg/kg, dosed compound name [14C]Rivoglitazone, route intravenous; settings: in vivo, read-out: Vdss
[5] = Total clearance in monkey at 0.0986 mg/kg, iv administered via tail vein by LC-MS/MS analysis; format: ADME, organism-based, Macaca mulatta; design: dose 0.0986 mg/kg, dosed compound name [14C]Rivoglitazone, route intravenous; settings: rhesus monkey, in vivo
[6] = AUC (0 to infinity) in F344/DuCrlCrlj rat at 0.1 mg/kg, iv administered via tail vein by LC-MS/MS analysis; format: ADME, organism-based; design: time infinity, dose 0.1 mg/kg, dosed compound name [14C]Rivoglitazone, route intravenous; settings: plasma
[7] = Tmax in F344/DuCrlCrlj rat at 0.5 mg/kg, po administered via gavage by LC-MS/MS analysis; format: ADME, organism-based; design: dose 0.5 mg/kg, dosed compound name [14C]Rivoglitazone, route oral; settings: in vivo
[8] = Drug excretion in monkey urine assessed as unchanged compound at 1 mg/kg, po administered via gavage measured during 0 to 72 hrs by radio-HPLC analysis; format: ADME, organism-based, Macaca mulatta; design: dose 1 mg/kg, dosed compound name [14C]Rivoglitazone, route oral; settings: rhesus monkey, read-out: Compound recovery
[9] = Apparent total clearance in F344/DuCrlCrlj rat at 0.1 mg/kg, po administered via gavage by LC-MS/MS analysis; format: ADME, organism-based; design: dose 0.1 mg/kg, dosed compound name [14C]Rivoglitazone, route oral; settings: in vivo, read-out: CLt/F
[10] = Terminal elimination half life in F344/DuCrlCrlj rat at 1 mg/kg, po administered via gavage by LC-MS/MS analysis; format: ADME, organism-based; design: dose 1 mg/kg, dosed compound name [14C]Rivoglitazone, route oral; settings: in vivo, read-out: beta t1/2 (converted)
[11] = Total clearance in monkey at 0.493 mg/kg, iv administered via tail vein by LC-MS/MS analysis; format: ADME, organism-based, Macaca mulatta; design: dose 0.493 mg/kg, dosed compound name [14C]Rivoglitazone, route intravenous; settings: rhesus monkey, in vivo
[12] = Cmax in F344/DuCrlCrlj rat at 1 mg/kg, po administered via gavage by LC-MS/MS analysis; format: ADME, organism-based; design: dose 1 mg/kg, dosed compound name [14C]Rivoglitazone, route oral; settings: in vivo
[13] = Drug excretion in F344/DuCrlCrlj rat feces assessed as unchanged compound at 1 mg/kg, po administered via gavage measured during 0 to 48 hrs by radio-HPLC analysis; format: ADME, organism-based; design: dose 1 mg/kg, dosed compound name [14C]Rivoglitazone, route oral; settings: read-out: Compound recovery
[14] = Drug excretion in monkey feces assessed as unchanged compound at 1 mg/kg, po administered via gavage measured during 0 to 72 hrs by radio-HPLC analysis; format: ADME, organism-based, Macaca mulatta; design: dose 1 mg/kg, dosed compound name [14C]Rivoglitazone, route oral; settings: rhesus monkey, read-out: Compound recovery
[15] = Terminal elimination half life in F344/DuCrlCrlj rat at 0.1 mg/kg, iv administered via tail vein by LC-MS/MS analysis; format: ADME, organism-based; design: dose 0.1 mg/kg, dosed compound name [14C]Rivoglitazone, route intravenous; settings: in vivo, read-out: beta t1/2 (converted)
[16] = system: Plasma; test: Drug uptake in monkey plasma assessed as unchanged compound at 1 to 5 mg/kg, po administered as single dose via gavage by LC-MS/MS analysis; format: ADME, organism-based, Macaca mulatta; design: dose 1-5 mg/kg, dosed compound name [14C]Rivoglitazone, route oral; settings: rhesus monkey, in vivo
[17] = Volume of distribution at steady state in F344/DuCrlCrlj rat at 0.1 mg/kg, iv administered via tail vein by LC-MS/MS analysis; format: ADME, organism-based; design: dose 0.1 mg/kg, dosed compound name [14C]Rivoglitazone, route intravenous; settings: in vivo, read-out: Vdss
[18] = Tmax in F344/DuCrlCrlj rat at 0.1 mg/kg, po administered via gavage by LC-MS/MS analysis; format: ADME, organism-based; design: dose 0.1 mg/kg, dosed compound name [14C]Rivoglitazone, route oral; settings: in vivo
[19] = AUC (0 to infinity) in F344/DuCrlCrlj rat at 0.1 mg/kg, po administered via gavage by LC-MS/MS analysis; format: ADME, organism-based; design: time infinity, dose 0.1 mg/kg, dosed compound name [14C]Rivoglitazone, route oral; settings: plasma
[20] = AUC (0 to infinity) in monkey at 0.493 mg/kg, iv administered via tail vein by LC-MS/MS analysis; format: ADME, organism-based, Macaca mulatta; design: time infinity, dose 0.493 mg/kg, dosed compound name [14C]Rivoglitazone, route intravenous; settings: rhesus monkey, plasma
[21] = Terminal elimination half life in F344/DuCrlCrlj rat at 0.1 mg/kg, po administered via gavage by LC-MS/MS analysis; format: ADME, organism-based; design: dose 0.1 mg/kg, dosed compound name [14C]Rivoglitazone, route oral; settings: in vivo, read-out: beta t1/2 (converted)
[22] = Apparent total clearance in monkey at 0.493 mg/kg, po administered via gavage by LC-MS/MS analysis; format: ADME, organism-based, Macaca mulatta; design: dose 0.493 mg/kg, dosed compound name [14C]Rivoglitazone, route oral; settings: rhesus monkey, in vivo, read-out: CLt/F
[23] = Cmax in monkey at 0.493 mg/kg, po administered via gavage by LC-MS/MS analysis; format: ADME, organism-based, Macaca mulatta; design: dose 0.493 mg/kg, dosed compound name [14C]Rivoglitazone, route oral; settings: rhesus monkey, in vivo
[24] = Volume of distribution at steady state in monkey at 0.493 mg/kg, iv administered via tail vein by LC-MS/MS analysis; format: ADME, organism-based, Macaca mulatta; design: dose 0.493 mg/kg, dosed compound name [14C]Rivoglitazone, route intravenous; settings: rhesus monkey, in vivo, read-out: Vdss
[25] = Terminal elimination half life in F344/DuCrlCrlj rat at 0.5 mg/kg, iv administered via tail vein by LC-MS/MS analysis; format: ADME, organism-based; design: dose 0.5 mg/kg, dosed compound name [14C]Rivoglitazone, route intravenous; settings: in vivo, read-out: beta t1/2 (converted)
[26] = AUC (0 to infinity) in F344/DuCrlCrlj rat at 0.5 mg/kg, iv administered via tail vein by LC-MS/MS analysis; format: ADME, organism-based; design: time infinity, dose 0.5 mg/kg, dosed compound name [14C]Rivoglitazone, route intravenous; settings: plasma
[27] = Terminal elimination half life in monkey at 0.0986 mg/kg, po administered via gavage by LC-MS/MS analysis; format: ADME, organism-based, Macaca mulatta; design: dose 0.0986 mg/kg, dosed compound name [14C]Rivoglitazone, route oral; settings: rhesus monkey, in vivo, read-out: beta t1/2 (converted)
[28] = Retention time of the compound by LC-MS/MS analysis; format: physicochemical; design: dosed compound name [14C]Rivoglitazone
[29] = Tmax in F344/DuCrlCrlj rat at 1 mg/kg, po administered via gavage by LC-MS/MS analysis; format: ADME, organism-based; design: dose 1 mg/kg, dosed compound name [14C]Rivoglitazone, route oral; settings: in vivo
[30] = Drug excretion in bile duct-cannulated rat feces assessed as unchanged compound level administered through oral dose by radio-HPLC analysis; format: ADME; design: dosed compound name [14C]Rivoglitazone; settings: read-out: Compound recovery
[31] = AUC (0 to t) in monkey at 0.493 mg/kg, iv administered via tail vein by LC-MS/MS analysis; format: ADME, organism-based, Macaca mulatta; design: dose 0.493 mg/kg, dosed compound name [14C]Rivoglitazone, route intravenous; settings: rhesus monkey, plasma
[32] = Oral bioavailability in monkey at 0.493 mg/kg administered via gavage by LC-MS/MS analysis; format: ADME, organism-based, Macaca mulatta; design: dosed compound name [14C]Rivoglitazone; settings: rhesus monkey, in vivo
[33] = AUC (0 to t) in monkey at 0.986 mg/kg, po administered via gavage by LC-MS/MS analysis; format: ADME, organism-based, Macaca mulatta; design: dose 0.986 mg/kg, dosed compound name [14C]Rivoglitazone, route oral; settings: rhesus monkey, plasma
[34] = Terminal elimination half life in F344/DuCrlCrlj rat at 0.5 mg/kg, po administered via gavage by LC-MS/MS analysis; format: ADME, organism-based; design: dose 0.5 mg/kg, dosed compound name [14C]Rivoglitazone, route oral; settings: in vivo, read-out: beta t1/2 (converted)
[35] = AUC (0 to t) in F344/DuCrlCrlj rat at 0.1 mg/kg, iv administered via tail vein by LC-MS/MS analysis; format: ADME, organism-based; design: dose 0.1 mg/kg, dosed compound name [14C]Rivoglitazone, route intravenous; settings: plasma
[36] = Drug excretion in bile duct-cannulated rat feces assessed as unchanged compound level administered through intravenous by radio-HPLC analysis; format: ADME; design: dosed compound name [14C]Rivoglitazone; settings: read-out: Compound recovery
[37] = Cmax in F344/DuCrlCrlj rat at 0.5 mg/kg, po administered via gavage by LC-MS/MS analysis; format: ADME, organism-based; design: dose 0.5 mg/kg, dosed compound name [14C]Rivoglitazone, route oral; settings: in vivo
[38] = Oral bioavailability in F344/DuCrlCrlj rat at 0.5 mg/kg administered via gavage by LC-MS/MS analysis; format: ADME, organism-based; design: dosed compound name [14C]Rivoglitazone; settings: in vivo
[39] = Drug excretion in monkey urine/feces assessed as unchanged compound at 1 mg/kg, po administered via gavage measured during 0 to 72 hrs by radio-HPLC analysis; format: ADME, organism-based, Macaca mulatta; design: dose 1 mg/kg, dosed compound name [14C]Rivoglitazone, route oral; settings: rhesus monkey, urine and feces, read-out: Compound recovery
[40] = AUC (0 to infinity) in F344/DuCrlCrlj rat at 1 mg/kg, po administered via gavage by LC-MS/MS analysis; format: ADME, organism-based; design: time infinity, dose 1 mg/kg, dosed compound name [14C]Rivoglitazone, route oral; settings: plasma
[41] = AUC (0 to t) in F344/DuCrlCrlj rat at 0.5 mg/kg, po administered via gavage by LC-MS/MS analysis; format: ADME, organism-based; design: dose 0.5 mg/kg, dosed compound name [14C]Rivoglitazone, route oral; settings: plasma
[42] = Total clearance in F344/DuCrlCrlj rat at 0.1 mg/kg, iv administered via tail vein by LC-MS/MS analysis; format: ADME, organism-based; design: dose 0.1 mg/kg, dosed compound name [14C]Rivoglitazone, route intravenous; settings: in vivo

Molecule `COc1ccc2nc(COc3ccc(CC4SC(=O)NC4=O)cc3)n(C)c2c1.Cl` (racemic) has an AUC(0-inf) [1] of 5000 ng·h/mL, a clearance [2] of 0.333 mL/min/kg and an AUC(0-inf) [3] of 21800 ng·h/mL. The Vd [4] was 0.131 L/kg, the clearance [5] was 0.312 mL/min/kg and the AUC(0-inf) [6] was 4670 ng·h/mL. It also gave a Tmax [7] of 1.13 h, a dose excreted [8] of 0.3% and a CL/F [9] of 0.354 mL/min/kg. It also gave a half-life [10] of 4.5 h, a clearance [11] of 0.371 mL/min/kg and a Cmax [12] of 4570 ng/mL. For the same molecule, the dose excreted [13] was 23.7%, the dose excreted [14] was 23.5% and the half-life [15] was 4.55 h. The Compound recovery [16] was “metabolite_detected”, the Vd [17] was 0.125 L/kg and the Tmax [18] was 3.25 h. For the same molecule, the AUC(0-inf) [19] was 4450 ng·h/mL, the AUC(0-inf) [20] was 23500 ng·h/mL and the half-life [21] was 4.35 h. It also gave a CL/F [22] of 0.485 mL/min/kg, a Cmax [23] of 1330 ng/mL and a Vd [24] of 0.155 L/kg. It also gave a half-life [25] of 4.84 h, an AUC(0-inf) [26] of 22900 ng·h/mL and a half-life [27] of 8.33 h. The Retention_time [28] was 23 min, the Tmax [29] was 2.25 h and the dose excreted [30] was 12.6%. The AUC(0-t) [31] was 21700 ng·h/mL, the bioavailability [32] was 90.4% and the AUC(0-t) [33] was 35800 ng·h/mL. It also gave a half-life [34] of 4.98 h, an AUC(0-t) [35] of 4530 ng·h/mL and a dose excreted [36] of 2.3%. For the same molecule, the Cmax [37] was 2090 ng/mL, the bioavailability [38] was 95% and the dose excreted [39] was 23.8%. For the same molecule, the AUC(0-inf) [40] was 49800 ng·h/mL, the AUC(0-t) [41] was 21000 ng·h/mL and the clearance [42] was 0.329 mL/min/kg.
